Results as given in doi:10.1101/2021.04.08.439011v1 (biorxiv, 2021).
Where two headings read alike, the source gives them in different places.

Assays:
ABL1(F317L) = ABL1(F317L) (Homo sapiens, UniProt P00519, F317L); conditions: 0.1 µM, binder
FLT3(D835H) = FLT3(D835H) (Homo sapiens, UniProt P36888, D835H); conditions: 0.1 µM; binder
PCTK3 = PCTK3 (Homo sapiens, UniProt Q07002); conditions: 0.1 µM; binder
S6K1 = S6K1 (Homo sapiens, UniProt P23443); conditions: 0.1 µM; binder
LCK = LCK (Homo sapiens, UniProt P06239); conditions: 0.1 µM; binder
EPHB6 = EPHB6 (Homo sapiens, UniProt O15197); conditions: 0.1 µM; binder
GRK7 = GRK7 (Homo sapiens, UniProt Q8WTQ7); conditions: 0.1 µM; binder
LATS2 = LATS2 (Homo sapiens, UniProt Q9NRM7); conditions: 0.1 µM; binder
KIT(V559D,T670I) = KIT(V559D,T670I) (Homo sapiens, UniProt P10721, T670I/V559D); conditions: 0.1 µM; binder
CDK7 = CDK7 (Homo sapiens, UniProt P50613); conditions: 0.1 µM; binder
EPHA7 = EPHA7 (Homo sapiens, UniProt Q15375); conditions: 0.1 µM; binder
MERTK = MERTK (Homo sapiens, UniProt Q12866); conditions: 0.1 µM; binder
BRSK2 = BRSK2 (Homo sapiens, UniProt Q8IWQ3); conditions: 0.1 µM; binder
TSSK1B = TSSK1B (Homo sapiens, UniProt Q9BXA7); conditions: 0.1 µM; binder
ALK(L1196M) = ALK(L1196M) (Homo sapiens, UniProt Q9UM73, L1196M); conditions: 0.1 µM; binder
CDKL2 = CDKL2 (Homo sapiens, UniProt Q92772); conditions: 0.1 µM; binder
ACVR2A = ACVR2A (Homo sapiens, UniProt P27037); conditions: 0.1 µM; binder
ULK1 = ULK1 (Homo sapiens, UniProt O75385); conditions: 0.1 µM; binder
ULK1, sequence (O75385 whole entry): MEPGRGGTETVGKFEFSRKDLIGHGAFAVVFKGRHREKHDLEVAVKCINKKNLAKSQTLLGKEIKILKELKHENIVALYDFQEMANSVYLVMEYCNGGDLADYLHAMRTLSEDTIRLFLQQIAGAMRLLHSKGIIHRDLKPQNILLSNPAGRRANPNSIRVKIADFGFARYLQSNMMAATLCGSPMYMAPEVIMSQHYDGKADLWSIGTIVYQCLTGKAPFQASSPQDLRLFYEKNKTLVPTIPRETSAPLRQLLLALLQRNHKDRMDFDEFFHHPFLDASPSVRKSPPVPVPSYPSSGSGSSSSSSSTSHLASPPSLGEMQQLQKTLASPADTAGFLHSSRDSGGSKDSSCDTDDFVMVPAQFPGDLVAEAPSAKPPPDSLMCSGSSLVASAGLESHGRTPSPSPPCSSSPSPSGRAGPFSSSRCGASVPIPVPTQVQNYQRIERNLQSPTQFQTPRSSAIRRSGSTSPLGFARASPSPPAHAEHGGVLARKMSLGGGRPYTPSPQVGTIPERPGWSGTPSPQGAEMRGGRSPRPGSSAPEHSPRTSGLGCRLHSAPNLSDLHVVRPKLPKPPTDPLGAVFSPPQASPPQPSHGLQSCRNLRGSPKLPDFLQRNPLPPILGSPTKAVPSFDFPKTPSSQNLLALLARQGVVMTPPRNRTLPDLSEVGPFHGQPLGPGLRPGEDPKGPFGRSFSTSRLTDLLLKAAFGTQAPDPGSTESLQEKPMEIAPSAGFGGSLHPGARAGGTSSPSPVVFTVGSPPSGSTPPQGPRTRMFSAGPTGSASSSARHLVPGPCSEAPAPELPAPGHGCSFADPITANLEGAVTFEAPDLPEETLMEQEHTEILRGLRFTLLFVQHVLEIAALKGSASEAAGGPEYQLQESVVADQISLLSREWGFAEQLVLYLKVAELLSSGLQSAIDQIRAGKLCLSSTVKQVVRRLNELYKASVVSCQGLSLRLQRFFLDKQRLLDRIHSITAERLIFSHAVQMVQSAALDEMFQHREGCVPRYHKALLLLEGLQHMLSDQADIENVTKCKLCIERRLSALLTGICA

CDK9 = CDK9 (Homo sapiens, UniProt P50750); conditions: 0.1 µM; binder
NEK1 = NEK1 (Homo sapiens, UniProt Q96PY6); conditions: 0.1 µM; binder
NEK1, sequence (Q96PY6 whole entry): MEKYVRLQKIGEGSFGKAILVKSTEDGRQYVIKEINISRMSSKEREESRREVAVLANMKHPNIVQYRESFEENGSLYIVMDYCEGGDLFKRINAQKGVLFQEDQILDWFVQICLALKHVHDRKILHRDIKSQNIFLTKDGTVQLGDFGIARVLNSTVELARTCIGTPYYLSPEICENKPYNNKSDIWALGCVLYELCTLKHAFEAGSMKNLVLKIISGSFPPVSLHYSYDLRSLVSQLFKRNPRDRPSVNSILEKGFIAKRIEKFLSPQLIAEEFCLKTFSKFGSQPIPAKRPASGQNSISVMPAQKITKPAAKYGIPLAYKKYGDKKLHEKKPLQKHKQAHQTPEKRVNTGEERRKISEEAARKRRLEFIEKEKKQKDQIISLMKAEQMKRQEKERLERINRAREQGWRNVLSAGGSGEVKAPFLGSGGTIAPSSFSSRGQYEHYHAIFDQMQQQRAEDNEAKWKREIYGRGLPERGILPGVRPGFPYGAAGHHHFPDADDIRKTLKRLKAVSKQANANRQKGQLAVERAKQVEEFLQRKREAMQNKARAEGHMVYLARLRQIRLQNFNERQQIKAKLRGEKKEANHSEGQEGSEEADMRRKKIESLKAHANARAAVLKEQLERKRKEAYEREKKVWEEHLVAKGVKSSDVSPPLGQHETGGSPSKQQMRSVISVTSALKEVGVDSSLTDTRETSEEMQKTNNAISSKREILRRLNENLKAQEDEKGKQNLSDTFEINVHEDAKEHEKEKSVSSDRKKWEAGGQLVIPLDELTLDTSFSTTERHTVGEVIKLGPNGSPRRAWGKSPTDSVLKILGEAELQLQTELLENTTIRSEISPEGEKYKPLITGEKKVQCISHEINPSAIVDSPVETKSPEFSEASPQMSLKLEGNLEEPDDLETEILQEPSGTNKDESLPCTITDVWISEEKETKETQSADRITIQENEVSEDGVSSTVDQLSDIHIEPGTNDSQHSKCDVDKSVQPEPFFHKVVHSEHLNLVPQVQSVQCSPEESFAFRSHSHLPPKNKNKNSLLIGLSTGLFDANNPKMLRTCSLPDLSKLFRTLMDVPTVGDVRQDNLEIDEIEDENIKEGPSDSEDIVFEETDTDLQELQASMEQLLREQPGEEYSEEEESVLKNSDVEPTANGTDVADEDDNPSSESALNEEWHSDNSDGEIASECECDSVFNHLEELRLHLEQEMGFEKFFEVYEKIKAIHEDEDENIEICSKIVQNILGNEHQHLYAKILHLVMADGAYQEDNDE

LATS1 = LATS1 (Homo sapiens, UniProt O95835); conditions: 0.1 µM; binder
LATS1, sequence (O95835 whole entry): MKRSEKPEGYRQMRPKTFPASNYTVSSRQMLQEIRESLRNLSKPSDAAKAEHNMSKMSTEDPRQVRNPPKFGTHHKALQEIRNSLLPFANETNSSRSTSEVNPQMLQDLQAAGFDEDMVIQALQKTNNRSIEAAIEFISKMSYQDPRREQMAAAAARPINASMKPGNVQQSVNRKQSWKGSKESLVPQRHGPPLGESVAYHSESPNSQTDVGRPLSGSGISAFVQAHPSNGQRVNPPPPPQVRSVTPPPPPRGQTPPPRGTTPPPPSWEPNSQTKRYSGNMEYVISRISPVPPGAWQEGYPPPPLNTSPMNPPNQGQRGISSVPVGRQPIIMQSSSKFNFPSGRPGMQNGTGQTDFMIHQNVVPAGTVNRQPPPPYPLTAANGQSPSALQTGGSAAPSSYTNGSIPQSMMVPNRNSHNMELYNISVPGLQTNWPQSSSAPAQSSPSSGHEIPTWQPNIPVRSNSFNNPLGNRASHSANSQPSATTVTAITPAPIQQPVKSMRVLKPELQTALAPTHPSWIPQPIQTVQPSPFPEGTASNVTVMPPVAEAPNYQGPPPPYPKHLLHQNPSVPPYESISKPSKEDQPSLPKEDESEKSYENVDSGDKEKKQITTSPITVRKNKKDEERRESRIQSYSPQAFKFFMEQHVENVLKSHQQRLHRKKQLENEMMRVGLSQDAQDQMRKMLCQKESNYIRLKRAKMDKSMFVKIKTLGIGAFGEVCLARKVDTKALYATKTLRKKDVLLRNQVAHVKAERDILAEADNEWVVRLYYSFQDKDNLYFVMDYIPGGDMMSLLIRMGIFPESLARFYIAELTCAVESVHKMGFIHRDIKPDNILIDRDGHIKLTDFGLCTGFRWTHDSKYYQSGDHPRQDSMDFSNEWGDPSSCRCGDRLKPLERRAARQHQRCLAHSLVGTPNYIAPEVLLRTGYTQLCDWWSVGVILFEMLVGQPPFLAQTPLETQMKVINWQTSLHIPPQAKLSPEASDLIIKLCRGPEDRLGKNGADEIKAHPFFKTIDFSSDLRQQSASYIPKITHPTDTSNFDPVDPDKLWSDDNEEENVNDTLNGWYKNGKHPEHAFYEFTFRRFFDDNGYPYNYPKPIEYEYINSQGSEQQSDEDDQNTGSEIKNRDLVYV

DDR1 = DDR1 (Homo sapiens, UniProt Q08345); conditions: 0.1 µM; binder
STK4 = STK4 (Homo sapiens, UniProt Q13043); conditions: 0.1 µM; binder
MYLK4 = MYLK4 (Homo sapiens, UniProt Q86YV6); conditions: 0.1 µM; binder
MRCKA = MRCKA (Homo sapiens, UniProt Q5VT25); conditions: 0.1 µM; binder
GRK2 = GRK2 (Homo sapiens, UniProt P25098); conditions: 0.1 µM; binder
IKK-beta = IKK-beta (Homo sapiens, UniProt O14920); conditions: 0.1 µM; binder
RIPK4 = RIPK4 (Homo sapiens, UniProt P57078); conditions: 0.1 µM; binder
MEK6 = MEK6 (Homo sapiens, UniProt P52564); conditions: 0.1 µM; binder
CLK1 = CLK1 (Homo sapiens, UniProt P49759); conditions: 0.1 µM; binder
CLK1, sequence (P49759 whole entry): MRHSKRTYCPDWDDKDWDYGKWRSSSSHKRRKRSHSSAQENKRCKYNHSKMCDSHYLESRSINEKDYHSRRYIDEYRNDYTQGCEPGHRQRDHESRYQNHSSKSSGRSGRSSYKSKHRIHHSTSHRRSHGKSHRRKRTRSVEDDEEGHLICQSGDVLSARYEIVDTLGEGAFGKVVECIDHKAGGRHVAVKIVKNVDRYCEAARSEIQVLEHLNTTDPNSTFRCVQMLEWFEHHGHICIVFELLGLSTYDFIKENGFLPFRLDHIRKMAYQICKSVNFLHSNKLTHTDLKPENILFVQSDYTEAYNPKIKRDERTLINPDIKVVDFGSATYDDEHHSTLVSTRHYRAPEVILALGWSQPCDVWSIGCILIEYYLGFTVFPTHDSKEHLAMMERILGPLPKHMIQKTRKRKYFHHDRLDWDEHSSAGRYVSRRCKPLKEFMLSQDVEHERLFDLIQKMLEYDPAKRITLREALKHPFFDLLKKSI

ABL2 = ABL2 (Homo sapiens, UniProt P42684); conditions: 0.1 µM; binder

ABL1(F317L), sequence (P00519 whole entry F317L): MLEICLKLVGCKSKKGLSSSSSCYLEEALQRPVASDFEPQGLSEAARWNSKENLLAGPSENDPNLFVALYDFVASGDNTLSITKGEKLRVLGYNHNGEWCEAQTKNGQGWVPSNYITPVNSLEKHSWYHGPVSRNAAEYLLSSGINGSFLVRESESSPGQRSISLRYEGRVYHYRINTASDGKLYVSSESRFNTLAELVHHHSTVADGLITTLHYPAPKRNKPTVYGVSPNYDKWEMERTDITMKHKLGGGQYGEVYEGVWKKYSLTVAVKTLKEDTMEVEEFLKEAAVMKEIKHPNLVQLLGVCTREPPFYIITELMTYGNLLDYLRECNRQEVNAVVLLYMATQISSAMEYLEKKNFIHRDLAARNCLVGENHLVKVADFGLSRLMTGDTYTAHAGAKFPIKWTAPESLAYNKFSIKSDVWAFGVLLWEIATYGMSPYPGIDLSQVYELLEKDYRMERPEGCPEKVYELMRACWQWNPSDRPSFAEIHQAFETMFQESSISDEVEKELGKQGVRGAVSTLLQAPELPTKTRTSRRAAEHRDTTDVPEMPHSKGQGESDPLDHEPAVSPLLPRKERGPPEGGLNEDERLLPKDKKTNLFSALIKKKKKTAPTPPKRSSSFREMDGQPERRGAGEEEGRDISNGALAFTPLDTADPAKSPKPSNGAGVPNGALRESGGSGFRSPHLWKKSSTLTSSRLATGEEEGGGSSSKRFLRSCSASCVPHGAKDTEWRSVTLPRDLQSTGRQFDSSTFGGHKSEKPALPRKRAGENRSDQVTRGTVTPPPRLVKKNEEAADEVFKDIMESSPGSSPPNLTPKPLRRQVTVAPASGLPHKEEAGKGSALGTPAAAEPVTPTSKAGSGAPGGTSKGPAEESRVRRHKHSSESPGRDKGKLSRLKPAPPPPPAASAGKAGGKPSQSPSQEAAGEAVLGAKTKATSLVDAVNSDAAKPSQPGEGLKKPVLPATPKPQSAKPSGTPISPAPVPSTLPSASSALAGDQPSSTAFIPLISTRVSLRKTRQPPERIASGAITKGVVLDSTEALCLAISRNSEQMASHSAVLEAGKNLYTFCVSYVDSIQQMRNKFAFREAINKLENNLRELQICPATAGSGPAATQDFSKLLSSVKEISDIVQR

## CNc1ncc2cc(-c3ccc(-c4cccc(C)n4)cc3Cl)c(=O)n(C[C@H]3OC[C@H](N)CO3)c2n1 [compound 6, G-5555]
ABL1(F317L); nonphosphorylated
  Percent Control: 100%
ABL1(F317L); phosphorylated
  Percent Control: 95%
FLT3(D835H)
  Percent Control: 89%
PCTK3
  Percent Control: 100%
S6K1
  Percent Control: 92%
LCK
  Percent Control: 58%
EPHB6
  Percent Control: 61%
GRK7
  Percent Control: 89%
LATS2
  Percent Control: 58%
KIT(V559D,T670I)
  Percent Control: 98%
CDK7
  Percent Control: 100%
EPHA7
  Percent Control: 100%
MERTK
  Percent Control: 95%
BRSK2
  Percent Control: 100%
TSSK1B
  Percent Control: 98%
ALK(L1196M)
  Percent Control: 100%
CDKL2
  Percent Control: 100%
ACVR2A
  Percent Control: 100%
ULK1
  Percent Control: 100%
CDK9
  Percent Control: 100%
NEK1
  Percent Control: 100%
LATS1
  Percent Control: 57%
DDR1
  Percent Control: 100%
STK4
  Percent Control: 90%
MYLK4
  Percent Control: 100%
MRCKA
  Percent Control: 100%
GRK2
  Percent Control: 97%
IKK-beta
  Percent Control: 93%
RIPK4
  Percent Control: 97%
MEK6
  Percent Control: 80%
CLK1
  Percent Control: 100%
ABL2
  Percent Control: 100%
